Reference: patent US7579486B2, “Metalloprotein inhibitors” (Regents of the University of California, San Diego, priority 2004, dated 2009)
Read-outs that look alike come from different tables or passages of the source.

Legend:
LF = LF (Bacillus anthracis, UniProt P15917); test: biochemical; parameters: species or system B. anthracis
HDAC = test: Inhibition of histone deacetylase (HDAC); format: biochemical; conditions: read-out: Average IC50 against HDAC
[1] = biological target: T1, human MMP-1 catalytic domain (Homo sapiens, UniProt P03956); test: MMP-1 fluorescent microplate assay (BIOMOL kit); format: biochemical; conditions: fluorescence-based assay, 1 h at 37° C. with inhibitor, pH 7.5; read-out: IC50 against MMP-1
T1 sequence (P03956 100-268): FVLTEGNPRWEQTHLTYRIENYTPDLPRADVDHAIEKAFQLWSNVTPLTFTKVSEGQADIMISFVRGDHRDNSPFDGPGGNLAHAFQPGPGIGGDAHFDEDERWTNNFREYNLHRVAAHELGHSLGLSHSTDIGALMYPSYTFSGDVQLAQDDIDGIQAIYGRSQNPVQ
Text: (§1) Experiments were repeated at least three times.

[2] = biological target: human MMP-2 catalytic domain (Homo sapiens, UniProt P08253); test: MMP-2 fluorescent microplate assay (BIOMOL kit); format: biochemical; conditions: for IC50: fluorescence-based assay, 1 h at 37° C. with inhibitor, pH 7.5, read-out: IC50 against MMP-2
Text: as §1

[3] = test system: neonatal rat cardiac fibroblasts; test: Cell invasion assay (Chemicon ECM 555); format: cell-based; conditions: 250 nM, 20 h
Method: Cell Invasion Assay. A cell invasion assay kit was purchased from Chemicon International (Cat. No. ECM 555) and the assay was performed as per kit instructions with minor modifications. Rat cardiac fibroblasts (CF) were prepared as previously described (F. J. Villarreal, N. N. Kim, G. D. Ungab, M. P. Printz, W. H. Dillmann, Circulation 1993, 88, 2849). Briefly, CF were prepared from hearts of 1-2 day old Sprague Dawley rats. Following collagenase digestions (4×), non-myocyte cells (mostly fibroblasts) were isolated by Percoll density gradient. The cell suspension was plated onto uncoated tissue culture dishes for 30 min to allow preferential attachment of CF to the bottom of the dish. The non-adherent cells were removed and fresh media (Dulbecco's modified Eagle's media +10% fetal bovine serum) was added. CF were allowed to proliferate to confluence and then trypsinized and frozen at −70° C. Stocks were freshly plated for the experiment and used from second passage. When reaching 90% confluence, cells were serum deprived for 24 h and then treated according to the experimental design (vide infra).
The CF were trypsinized once more and suspended in fresh serum-free media. Inhibitors AM-5 and AM-6 were dissolved in DMSO and diluted 10-fold in serum free media. […] Increased fluorescence indicates the presence of invaded cells. […]

[4] = read-out: Average IC50 against LF

Chain of LF (P15917 34-809 limits assumed): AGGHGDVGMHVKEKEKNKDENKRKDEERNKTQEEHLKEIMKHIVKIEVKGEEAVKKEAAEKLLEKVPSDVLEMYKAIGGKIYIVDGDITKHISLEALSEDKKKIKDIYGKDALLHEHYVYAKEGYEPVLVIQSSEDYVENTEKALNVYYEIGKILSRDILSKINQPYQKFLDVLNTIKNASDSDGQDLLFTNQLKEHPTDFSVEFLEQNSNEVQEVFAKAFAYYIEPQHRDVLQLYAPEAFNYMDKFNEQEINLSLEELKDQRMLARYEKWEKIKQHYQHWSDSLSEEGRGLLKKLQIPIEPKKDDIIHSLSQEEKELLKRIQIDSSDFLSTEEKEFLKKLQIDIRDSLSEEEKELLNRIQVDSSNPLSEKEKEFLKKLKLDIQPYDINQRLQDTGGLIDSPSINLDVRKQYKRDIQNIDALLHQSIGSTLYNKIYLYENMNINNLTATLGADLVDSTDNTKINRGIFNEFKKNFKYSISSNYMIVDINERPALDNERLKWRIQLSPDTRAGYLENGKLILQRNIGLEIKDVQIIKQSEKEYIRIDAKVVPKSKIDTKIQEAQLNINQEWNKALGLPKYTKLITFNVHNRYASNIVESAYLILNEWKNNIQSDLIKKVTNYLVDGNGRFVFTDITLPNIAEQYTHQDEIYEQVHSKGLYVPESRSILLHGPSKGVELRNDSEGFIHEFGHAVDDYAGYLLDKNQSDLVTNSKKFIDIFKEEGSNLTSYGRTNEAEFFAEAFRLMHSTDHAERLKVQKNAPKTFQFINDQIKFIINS
Chain of human MMP-2 catalytic domain (P08253 110-452): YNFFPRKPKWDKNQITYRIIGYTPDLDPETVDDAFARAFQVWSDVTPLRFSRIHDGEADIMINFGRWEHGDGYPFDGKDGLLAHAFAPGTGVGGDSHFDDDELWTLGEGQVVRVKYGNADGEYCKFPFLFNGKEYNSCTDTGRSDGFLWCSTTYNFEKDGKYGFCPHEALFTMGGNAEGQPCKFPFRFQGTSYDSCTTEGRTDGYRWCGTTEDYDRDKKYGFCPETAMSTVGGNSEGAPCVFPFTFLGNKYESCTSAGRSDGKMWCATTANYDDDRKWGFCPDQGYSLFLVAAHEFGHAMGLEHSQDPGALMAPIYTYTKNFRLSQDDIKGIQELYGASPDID

Structure (SMILES) | IC50 [1] | potency against MMP-2 compared with MMP-3, in words [2] | IC50 [2] | other results
On1ccccc1=S [1,2-HOPTO] | – | – | – | IC50 (LF; [4]): 3900 µM; IC50 (HDAC): 860 µM
CC(=O)NO [AHA (N-hydroxyacetamide), N-hydroxyacetamide, reference compound] | – | – | – | IC50 (LF; [4]): 11400 µM; IC50 (HDAC): 3200 µM
Cc1cc(=O)c(O)c(C(=O)NCc2ccc(-c3ccc(-c4ccccc4)cc3)cc2)o1 [AM-6, 3-Hydroxy-6-methyl-pyran-4(1H)-one-2-carboxy-N-(4-biphenylbenzylamide)] | > 50 µM | substantially less potent against MMP-2 | > 50 µM | reduction of invasion of neonatal rat cardiac fibroblasts through a collagen membrane [3]: 55%
O=C(NCc1ccc(-c2ccccc2)cc1)c1cccc(=O)n1O [compound 20] | > 12.5 µM | – | 0.9 µM | –
Cc1cc(=O)c(O)c(C(=O)NCCc2ccc(-c3ccccc3)cc2)o1 [AM-3] | > 50 µM | – | 27 µM | –
O=C(NCc1ccc(-c2ccccc2)cc1)c1occc(=S)c1O [PY-2S (27), 3-Hydroxy-4-thiopyrone-2-carboxy-N-(4-phenylbenzylamide)] | – | – | – | IC50 (LF): 38 µM
O=C(NCCc1ccc(-c2ccccc2)cc1)c1occc(=S)c1O [PY-3S (30)] | – | – | – | IC50 (LF): 18.5 µM
Cc1cc(=O)c(O)c(C(=O)NCc2ccc(-c3ccc(C#N)cc3)cc2)o1 [AM-5, 3-Hydroxy-6-methyl-pyran-4(1H)-one-2-carboxy-N-(4-(4-cyanophenyl)benzylamide)] | > 50 µM | substantially less potent against MMP-2 | 0.61 µM | reduction of invasion of neonatal rat cardiac fibroblasts through a collagen membrane [3]: 67%
Cc1cc(=O)c(O)c(C(=O)Nc2ccc(-c3ccccc3)cc2)o1 [AM-1, 3-Hydroxy-6-methyl-pyran-4(1H)-one-2-carboxy-N-(4-biphenylamide)] | > 50 µM | – | 36 µM | –
Cc1cc(=O)c(O)c(C(=O)NCc2ccc(-c3ccccc3)cc2)o1 [AM-2, 3-Hydroxy-6-methyl-pyran-4(1)-one-2-carboxy-N-(4-phenylbenzylamide)] | > 50 µM | substantially less potent against MMP-2 | 9.3 µM | –
COc1ccc(CNC(=O)c2oc(C)cc(=O)c2O)cc1 [AM-4] | > 50 µM | substantially less potent against MMP-2 | > 50 µM | –
Cc1occc(=S)c1O [Thiomaltol, thiomaltol] | – | – | – | IC50 (LF): 260 µM; IC50 (HDAC): 247 µM
